In PMC12132378 (bioRxiv, 2025):

Target: T1, DTX2 (Homo sapiens, UniProt Q86UW9)
T1 sequence (Q86UW9 1-622): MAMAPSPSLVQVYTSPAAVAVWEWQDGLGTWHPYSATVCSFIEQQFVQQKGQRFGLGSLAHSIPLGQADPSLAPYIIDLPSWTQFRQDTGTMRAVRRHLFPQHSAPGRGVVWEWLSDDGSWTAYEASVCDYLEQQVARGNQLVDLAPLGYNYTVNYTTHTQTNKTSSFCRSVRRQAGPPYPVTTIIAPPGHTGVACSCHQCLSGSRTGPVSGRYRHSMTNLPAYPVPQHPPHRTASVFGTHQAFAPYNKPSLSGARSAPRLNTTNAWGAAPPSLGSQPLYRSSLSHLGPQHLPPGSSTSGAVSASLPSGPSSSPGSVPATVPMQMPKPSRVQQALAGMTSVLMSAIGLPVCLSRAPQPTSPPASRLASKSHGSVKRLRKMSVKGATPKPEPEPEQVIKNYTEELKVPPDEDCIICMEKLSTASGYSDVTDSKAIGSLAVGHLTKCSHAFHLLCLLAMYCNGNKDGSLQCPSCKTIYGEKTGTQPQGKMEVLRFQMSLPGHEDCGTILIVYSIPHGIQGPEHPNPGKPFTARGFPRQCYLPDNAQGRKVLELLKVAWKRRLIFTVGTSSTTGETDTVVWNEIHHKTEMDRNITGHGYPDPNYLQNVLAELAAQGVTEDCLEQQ
Test: ubiquitylation of OP-ADPr, ion exchange and intact mass spectrometry
Type: biochemical
Conditions: co-substrate purified E2~Ub conjugate; pH 7.4, 37 °C, 150 mM NaCl

Which “ubiquitylation of OP-ADPr, ion exchange and intact mass spectrometry” value does the source give for `C#CCO[C@H]1O[C@H](COP(=O)(O)OP(=O)(O)OC[C@H]2O[C@@H](n3cnc4c(N)ncnc43)[C@H](O)[C@@H]2O)[C@@H](O)[C@H]1O` [compound 8, OP-ADPr] here?
The value was “We next coupled Ub to OP-ADPr using DTX2 to generate an ester-linked Ub-OP-ADPr”.
